Patent publication US20150320829A1, “Broad Spectrum Bacteriocin for Control of Unwanted Bacteria” (priority 2014, published 2015)
“Also recorded” adds a separate entry of the source.

How the values were obtained:
[1] = tested on: LAB isolates from commercial ethanol plants (multiple species of Lactobacillus, Lactococcus, Weissella, Leuconostoc, Pediococcus, Enterococcus, and …); assay: Inhibitory activity spectrum: culture supernatant spotted onto indicator bacterial lawns; type: cell-based, lactic acid bacteria
Procedure: (§1) FIG. 1 is a schematic representation of the proteins responsible for producing the bacteriocin of the invention. In the discovery of the unique broad spectrum bacteriocin of this invention, indigenous LAB were isolated and purified from the fermentation mash of the commercial ethanol fermentation plants. The identities of the isolates were determined to the species level based on their 16s rDNA sequences. The capability of the isolated LAB strains to produce antimicrobial compounds was identified. Culture supernatants of the strains to be tested were spotted onto individual indicator bacterial culture lawns, which were prepared using a variety of LAB strains of different genera. […] Any positive activity of bacterial growth inhibition from the tested culture supernatant was confirmed again in the same manner, and the inhibitory activity spectrum of the antimicrobial compound is determined. […]
(§2) FIG. 1 is a schematic representation of the proteins responsible for producing the bacteriocin of the invention. The inhibitory activity spectrum of GP15cin against different strains was determined. The active concentration range and the minimum inhibition concentration of the bacteriocin are determined using different indicator strains. The activity levels of the bacteriocin present in the raw bacterial culture supernatants and/or in partially purified mixtures were also determined. […]

[2] = tested on: non-LAB isolates, such as strains of Staphylococcus, Enterobacter, Bacillus, and Clostridium; assay: as above; type: cell-based
Procedure: as §1, §2

[3] = Stability of bacteriocin activity at different temperatures and pH values; type: physicochemical
Excerpt: FIG. 1 is a schematic representation of the proteins responsible for producing the bacteriocin of the invention. Either using crude, partially or completely purified form, the chemical characteristics of the bacteriocins can be determined. The determined characteristics include their sensitivities to different enzymes, stability at different temperatures and pH values, etc. Sensitivity of the bacteriocin to proteolytic and lipolytic enzymes, such as trypsin, pepsin, pronase, lipase, etc, was tested. The proteinaceus nature of GP15cin was confirmed. […] The same bacteriocin has optimal activity in the pH range of 4-10.

[4] = tested on: indigenous contaminating bacteria in fermentation mash from commercial ethanol plants; assay: Reduction of indigenous contaminating bacterial levels in ethanol fermentation mash; type: cell-based; settings: crude form
Procedure: FIG. 1 is a schematic representation of the proteins responsible for producing the bacteriocin of the invention. The inhibitory activity spectrum of GP15cin against different strains was determined. The active concentration range and the minimum inhibition concentration of the bacteriocin are determined using different indicator strains. The activity levels of the bacteriocin present in the raw bacterial culture supernatants and/or in partially purified mixtures were also determined. […] FIG. 2 to FIG. 11 show the effectiveness of GP15cin in reducing the total levels of indigenous bacteria presented in fermentation mash from different commercial ethanol plants. The exact identities of the indigenous bacteria population in different plants are unknown and are likely highly diverse.
GP15cin described herein were produced by a L. plantarum strain, which was isolated from the indigenous LAB populations present during commercial ethanol fermentation. GP15cin can act towards species and/or strains of similar indigenous LAB populations and thus can be used as an effective control for contaminating LAB. […] Either fermentor or mash cooler mash samples were collected from 6 different commercial ethanol plants on 13 different days from 2012 to 2014. Results of 15 independent tests are shown. […]

contaminating LAB = assay: Lactic acid and acetic acid levels during laboratory-scale ethanol fermentation; type: cell-based, lactic acid bacteria
Excerpt: GP15cin described herein were produced by a L. plantarum strain, which was isolated from the indigenous LAB populations present during commercial ethanol fermentation. GP15cin can act towards species and/or strains of similar indigenous LAB populations and thus can be used as an effective control for contaminating LAB. […] Either fermentor or mash cooler mash samples were collected from 6 different commercial ethanol plants on 13 different days from 2012 to 2014. Results of 15 independent tests are shown. […] It is likely that the effects on controlling contaminating bacteria and acids will be even more significant if a higher dose of […] is used. The presented results highlight the feasibility of GP15cin application for control of unwanted bacteria in ethanol and other biofuel industries.

[5] = tested on: Lactobacillus GP15 (production host); assay: Activity against own production host; type: cell-based, Lactobacillus plantarum
Excerpt: As noted above, GP-15cin may be applied alone or in combination with other bacteriocin and/or bacteriophage virulent for unwanted bacteria in the same system. Bacteriocin producing hosts are immune to the bacteriocins produced by themselves. GP-15cin is therefore not active against its own production host, […]. […] Therefore it is desirable to combine GP-15cin with a different bacteriocin in a cocktail that will kill the bacteria insensitive to GP15cin. Additionally GP-15cin may be combined with other antimicrobial agents to broaden the scope of effectiveness against the range of unwanted bacteria that are targeted. For example the combination of bacteriocin and bacteriophage (phage) ensures a broader inhibition spectrum and more efficient control of the bacteria contamination. Phage targeting these non-sensitive strains can be isolated, and be combined with the bacteriocin for a complete control of contaminating bacteria.

[6] = tested on: Lactobacillus fermentum strain 0315-25; assay: Batch culture growth inhibition, bacteriocin and phage alone and combined; type: cell-based; settings: 24 h
Procedure: Bacteriocin alone, bacteriophage alone, and bacteriocin combined with phage were tested against Lactobacillus in batch culture systems. To be specific, logarithmic growth phase cultures of Lactobacillus fermentum strain 0315-25 (OD600 being 0.1) were treated either with single agent at different doses, such as bacteriocin GP15cin alone at different doses (0.1%, 1%, and 10%, v/v), or a phage designated herein as LferInf alone at different MOIs (0.1, 1, and 10), or two agents combined together at different doses, such as 0.1% GP15cin plus LferInf at MOI of 0.1, 0.1% GP15cin plus phage LferInf at MOI of 1, 1% GP15cin plus LferInf at MOI of 0.1, and 1% GP15cin plus phage LferInf at MOI of 1. Culture without any treatment was served as control. LferInf is a bacteriophage isolated from wastewater and found to be effective against a broad host range of Lactobacillus and described in more detail below. The growth of bacteria was monitored for 24 h, and the treatment effects were compared.

## plantaricin W [GP15cin]
[1]; LAB genera plus Staphylococcus, Enterobacter, Bacillus, Clostridium
  killing spectrum against a list of bacteria: extremely broad killing spectrum
[1]; LAB isolates from commercial ethanol plants
  killing activity against LAB isolates: broad range killing activity against the vast majority of the LAB isolates
[2]
  killing activity against non-LAB isolates: showed killing activity
[3]
  pH range of optimal activity: 4-10 pH
[3]; after 2 hours at 120° C.
  loss of activity / heat resistance: not a complete loss of activity
[3]; extreme pH values
  reversibility of activity loss: does not appear to be reversible
[3]; pH 12
  loss of activity: complete loss of activity
[3]; pH values of 1, 2, 3, and 11
  reduction in activity: 50%
[3]; temperature of 12.0° C. (so in the source)
  reduction in activity: 87.5%
[3]; temperatures of 65-100° C.
  reduction in activity: 50%
[4]
  time in which the reduction effect was seen: ≥ 2 h
[4]; mash from 6 commercial ethanol plants, 15 independent tests
  reduction of indigenous contaminating bacteria levels: consistent reduction effects seen in all tests; also recorded: reduced indigenous contaminating bacteria levels in all mash samples
Contaminating LAB
  acetic acid level produced by contaminating LAB: significantly reduced
  lactic acid level produced by contaminating LAB: significantly reduced
[5]
  activity against its own production host: not active
[6]; GP15cin alone at 0.1% v/v
  growth of L. fermentum compared to control: all treatment, except GP15cin used at 0.1%, suppressed the growth
[6]; GP15cin alone at 1% and 10% v/v
  growth of L. fermentum compared to control: suppressed the growth
